The text below walks through data of patent US4243678A, “Acylhydrocarbylaminoalkanoic acids, compositions and uses” (Byk Gulden Lomberg Chemische Fabrik GmbH, priority 1977, dated 1981).

The nature of data set [1]: Determination of toxicity (lethal action on the mouse after intraperitoneal application). To be noted: in vivo, ip. Type of data set: in vivo. As for the experimental part:
The toxicity investigations are carried out on female NMRI mice (body weight 22 to 26 g). The animals (5 animals per dose) are given food and water ad lib. Different doses of the substances are administered intraperitoneally. The duration of observation is 14 days. The LD50, i.e. the dose at which 50% of the animals die, is determined graphically from the dose/effect curve.

Data set [2] in a line: Influence on bile secretion (choleresis) of the narcotized rat. In kind it is in vivo, rat (male Sprague-Dawley). The following applies: in vivo, LD50 mouse i.p. / ED50 rat i.d. The source says:
(§1) Male Sprague-Dawley rats (body weight from 250 to 300 g) are narcotized with 1.2 g/kg urethane i.m. Then the abdominal cavity is opened medially, the bile duct is ligatured shortly above the place where it leads into the duodenum and also near to the hepatic duct, and both sections are catheterized towards the liver.
(§2) As in the rat all the pancreatic ducts lead out into the central section of the bile duct; it is possible in this way to discharge the pancreatic secretion separately from the distal (ligatured) section and the bile separately from the proximal section of the bile duct.
(§3) The quantities of pancreatic juice and bile juice obtained are measured at intervals of 30 minutes over a period from 2 hours before to 3 hours after the intraduodenal (V. jugularis externa) administration of the compounds to be tested (quantity of liquid administered 5 ml/kg).
(§4) The body temperature of the animals is maintained at 36° to 38° C. by means of electric blankets and radiation; the temperature is monitored rectally.
(§5) The liquid volumes of the 30-minute fractions after the administration of the substance are related in each case to the quantity of bile or pancreatic juice secreted prior to the application of the substance (=100%, mean of the last two measurements). The maximum percentage increase in the pancreatic or bile secretion is represented in dependence upon dose, and from this the ED50 is determined by interpolation.

The next data set relates to bile secretion. The data set is described as above. In kind it is in vivo, rat (male Sprague-Dawley). To be noted: 0.5 h, liquid volume.
Description: as §1, §2, §3, §4, §5

Data set [3] is described as follows: Influence on pancreatic secretion of the narcotized rat. Type of data set: in vivo, rat (male Sprague-Dawley). To be noted: in vivo, LD50 mouse i.p. / ED50 rat i.d.
Description: as §1, §2, §3, §4, §5

Another data set deals with pancreatic secretion. The description is as above. Type of data set: in vivo, rat (male Sprague-Dawley). The following applies: 0.5 h.
Description: as §1, §2, §3, §4, §5

Data set [4] concerns glucose formation from lactate and pyruvate in isolated perfused liver. In words: Inhibition of the formation of glucose from lactate and pyruvate in the isolated perfused rat liver. Further details: species or system rat (male Sprague-Dawley). The following applies: Table VIII; for Glucose formation, % change: 0.2 mmole/liter in the perfusate, isolated perfused liver of fasting rats; for ED50 inhibition of formation of glucose from lactate and pyruvate: from 4 concentrations, 0.02 to 1.00 mmol/liter. As for the experimental part:
For this purpose young male Sprague-Dawley rats (160 to 200 g) are used. The rats are kept in cages of up to 5 animals in a temperature-controlled room (23° C.) with a fixed day/night rhythm (12/12 hours).
Food is withheld from the animals for from 20 to 22 hours prior to the operation. They are allowed to take water ad lib. The operation and the perfusion of the liver are carried out using the technique of R. Scholz et al. [Eur. J. Biochem. 38 (1973) 64 to 72]. The perfusion liquid used is Krebs-Henseleit bicarbonate buffer (pH 7.4), which is saturated with an oxygen/carbon dioxide mixture (95/5) and contains 1.6 mmol/liter of L-lactate and 0.2 mmol/liter of pyruvate. The perfusion liquid is pumped into the liver via a cannula inserted into the portal vein. The effluent perfusion liquid is collected via a cannula inserted into the Vena cava. The liver is perfused for about 2 hours. The test compounds are infused for 16 minutes each from the 32nd to the […] after the perfusion in increasing concentrations (0.02 to 1.00 mmol/liter).
Samples of the effluent perfusion liquid are collected at one-minute intervals and analyzed for glucose, lactate and pyruvate (using standard enzymatic methods). The percentages shown in Table VIII relate to the condition occurring before and after the administration of the compounds, the changes caused solely by lactate and pyruvate being set as being equal to 100%.

Data set [5] can be described thus: Antihepatotoxic effect: duration of hexobarbital sleep of the rat after liver damage by CCl4. The following applies: rat, in vivo. As to the method: (§6) The compounds to be tested are administered 1 hour prior to the administration of CCl4 orally in a liquid volume of 10 ml/kg.
(§7) The antihepatotoxic effect of the compounds to be tested (sodium salts in aqueous solution) is determined by the reduction of the prolongation of sleeping period caused by the CCl4 liver cell damage in the groups treated, as compared with the prolongation of the sleeping period of the CCl4 control group (=100%). […]

Another data set concerns liver damage by CCl4. The data set is described as above. The following applies: Rattus norvegicus, po; for ED25: read-out: ED25 antihepatotoxic effect (shortens hexobarbital narcosis by 25%); for ED50: read-out: ED50 antihepatotoxic effect (shortens hexobarbital narcosis by 50%). As to the method:
as §6, §7

Data set [6] in a line: Antiulcerogenic (stomach-protective) action, pylorus ligature and acetylsalicylic acid. Type of data set: in vivo, rat (female). The following applies: in vivo; LD50 mouse i.p. / ED50 rat i.d.; Table IV; read-out: TQ (LD50/ED50), antiulcerogenic action. As for the experimental part: (§8) The ulcer provocation is carried out on rats which have been made to fast for 24 hours (female, 180 to 200 g) by ligature of the pylorus (under ether narcosis) and the oral application of 100 mg/10 ml/kg acetylsalicylic acid. The administration of the substances was carried out intraduodenally (2.5 ml/kg) immediately after the ligature of the pylorus. The closure of the wound was carried out by means of Michel clamps. 4 hours after this, the animals were autopsied (while inebriated with ether) by dislocation of the atlas, and the stomach was resected. The stomach, opened longitudinally, is fixed on a cork board and, using a stereomicroscope with an enlargement of 10×, the number and size (=diameter) of any ulcers present were determined. The product of the degree of severity (according to the following scale of points) and the number of ulcers was used as the individual ulcer index.
(§9) As a measure of antiulcerogenic effect the reduction in the mean ulcer index of each treated group, as compared with that of the control group (=100%), was used.

The next data set concerns stomach ulcer. Described as above. Type of data set: in vivo, rat (female). The following applies: 4 h; rat, intraduodenally; Table IV; read-out: ED50 antiulcerogenic action (dose which reduces the mean ulcer index by 50%). As for the experimental part:
as §8, §9

The mark [7] stands for this setting: Table II, read-out: TQ (LD50/ED50), bile secretion.
Where [8] appears, read: narcotized rat, i.d., 30 min fraction, Table II, read-out: ED50 bile secretion (dose which brings about an increase in the bile secretion by a maximum of 50%).
[9] abbreviates: Table I, read-out: TQ (LD50/ED50), pancreatic secretion.
The mark [10] stands for this setting: Rattus norvegicus, read-out: ED50 pancreatic secretion (dose which brings about an increase in the pancreatic secretion by a maximum of 50%).
Setting [11] is: TQ LD50/ED25, antihepatotoxic effect, LD50 mouse i.p. / ED25 rat p.o., Table V.
The mark [12] stands for this setting: TQ LD50/ED50, antihepatotoxic effect, LD50 mouse i.p. / ED50 rat p.o., Table V.
[13] abbreviates: Table VII, read-out: TQ [LD50/ED50], pancreatic secretion.
The mark [14] stands for this setting: narcotized rat, i.d., liquid volume, 30 min fraction, Table VII, read-out: ED50 pancreatic secretion (dose which brings about an increase in pancreatic secretion of a maximum of 50%).

Where two headings read alike, the source gives them in different places.

The term LD50 denotes the dose at which mortality reaches 50%. Low values mean greater toxicity, high ones lower toxicity. For orientation: ED50 means the dose at which the effect has come halfway, by size or by number of responders. Molecule `CC(C)(C)N(CCCC(=O)O)C(=O)c1ccc(Cl)cc1` [Serial No. 2, N-(p-chloro)benzoyl-4-(tert.-butylamino)butyric acid] registered an LD50 at 336 h in data set [1] (mouse, Table II) of 850 mg/kg. Also, the selectivity ratio in data set [2] (setting [7]) stood at 57. The median effective dose (ED50) in the data set on bile secretion (setting [8]) amounted to 15 mg/kg.
The matching figures for `C#CC(CC)(CC)N(CCCC(=O)O)C(=O)c1ccc(Cl)cc1` [Serial No. 4, N-(p-chloro)benzoyl-4-[(3-ethyl-1-pentyn-3-yl)amino]butyric acid]: 200 mg/kg, approximately 40 and approximately 5 mg/kg.
The molecule `C#CC1(N(CCCC(=O)O)C(=O)c2ccc(Cl)cc2)CCCCC1` [Serial No. 5, N-(p-chloro)benzoyl-4-[(1-ethynylcyclohexyl-1)-amino]butyric acid] displayed a median lethal dose (LD50) at 336 h in data set [1] (mouse, Table I) of 190 mg/kg. For the same molecule, the results for the selectivity ratio in data set [2] (setting [7]) and in data set [3] (setting [9]) were 32 and 95, respectively. Besides, the ED50 with bile secretion (setting [8]) was determined as 6 mg/kg; in the data set on pancreatic secretion (setting [10]) it was 2 mg/kg.
The molecule `CCC(C)(C)N(CCCC(=O)O)C(=O)c1ccc(Cl)cc1Cl` [Serial No. 11, N-(2,4-dichloro)benzoyl-4-[(1,1-dimethylpropyl)amino]butyric acid] came in with an LD50 at 336 h in data set [1] (mouse, Table II) of 190 mg/kg. Besides, the selectivity ratio in [2] (setting [7]) is 32. Also, the ED50 in the data set with bile secretion (setting [8]) was found to be 6 mg/kg.
As for `CC(C)(C)CC(C)(C)N(CCCC(=O)O)C(=O)c1ccc(F)cc1` [Serial No. 16, N-(p-fluoro)benzoyl-4-(1,1,3,3-tetramethylbutyl)aminobutyric acid], in data set [1] (mouse, Table I), the LD50 at 336 h worked out at 400 mg/kg. Further, the selectivity ratio is 57 in data set [2] (setting [7]) and approximately 40 in [3] (setting [9]). Besides, the ED50 in the data set on bile secretion (setting [8]) is 7 mg/kg; in the data set on pancreatic secretion (setting [10]), approximately 10 mg/kg.
In data set [1] (mouse, Table IV), `O=C(O)CCCCCN(C(=O)c1ccc(Cl)cc1)c1ccccc1-c1ccccc1` [Serial No. 24, 6-[p-chloro-N-(biphenyl-2-yl)benzamido]caproic acid] showed an LD50 at 336 h of 130 mg/kg. Also, the “Glucose formation, % change” value in data set [4] was -99%. The “ED50 inhibition of formation of glucose from lactate and pyruvate” value (from here on “ED50 inhibition of formation of glucose”) in data set [4] came out at 23 µg/mL. In addition, the selectivity ratio is approximately 14.4 in data set [5] (setting [11]), 9.3 in data set [5] (setting [12]) and approximately 3.3 in [6]. Moreover, the ED25 in the data set with liver damage by CCl4 was approximately 9 mg/kg. In addition, the ED50 in the data set on liver damage by CCl4 is 14 mg/kg; in the data set with stomach ulcer, approximately 40 mg/kg.
`O=C(O)CCCN(C(=O)c1cccc(C(F)(F)F)c1)c1ccccc1-c1ccccc1` [Serial No. 25, 4-[m-trifluoromethyl-N-(biphenyl-2-yl)benzamido]butyric acid] registered an LD50 at 336 h in [1] (mouse, Table IV) of 110 mg/kg. Further, the “Glucose formation, % change” value in data set [4] is -77%. Further, the “ED50 inhibition of formation of glucose” value in data set [4] amounted to 34 µg/mL. Moreover, the selectivity ratio in data set [3] (setting [13]) stood at 110; in data set [5] (setting [11]), 11; in data set [5] (setting [12]) it was 3.7; in data set [6] it was 11. In addition, the ED50 stood at 1 mg/kg with pancreatic secretion (setting [14]), 30 mg/kg with liver damage by CCl4 and 10 mg/kg with stomach ulcer. The ED25 in the data set on liver damage by CCl4 came to 10 mg/kg.
In the case of `O=C(O)CCCN(C(=O)c1ccc(F)cc1)c1ccccc1-c1ccccc1` [Serial No. 26, 4-[p-fluoro-N-(biphenyl-2-yl)benzamido]butyric acid], in [1] (mouse, Table IV), the median lethal dose (LD50) at 336 h is 210 mg/kg. Moreover, the “Glucose formation, % change” value in data set [4] was -51%. In data set [4], the “ED50 inhibition of formation of glucose” value was 76 µg/mL. For the same molecule, the selectivity ratio in [3] (setting [13]) was 84; in [5] (setting [11]), 131; in data set [5] (setting [12]), 75; in data set [6], approximately 3.8. The ED50 is 2.5 mg/kg in the data set on pancreatic secretion (setting [14]), 2.8 mg/kg with liver damage by CCl4 and approximately 55 mg/kg in the data set with stomach ulcer. The ED25 with liver damage by CCl4 is 1.6 mg/kg.
Molecule `O=C(O)CCCN(C(=O)c1ccc(Cl)cc1)c1ccccc1-c1ccccc1` [Serial No. 31, 4-[p-chloro-N-(biphenyl-2-yl)benzamido]butyric acid] returned a 50% lethal dose (LD50) at 336 h in data set [1] (mouse, Table IV) of 180 mg/kg. In data set [4], the “Glucose formation, % change” value is -79%. For the same molecule, in data set [4], the “ED50 inhibition of formation of glucose” value came to 43 µg/mL. The selectivity ratio was 180 in data set [3] (setting [13]), more than 180 in data set [5] (setting [11]), 51.4 in data set [5] (setting [12]) and 5.1 in [6]. The ED50 with pancreatic secretion (setting [14]) was determined as 1 mg/kg; in the data set on liver damage by CCl4, 3.5 mg/kg; in the data set on stomach ulcer, 35 mg/kg. Further, in the data set on liver damage by CCl4, the ED25 was less than 1 mg/kg.
`COc1cc(C(=O)N(CCCC(=O)O)c2cccc3ccccc23)cc(OC)c1OC` [Serial No. 40, 4-{3,4,5-trimethoxy-[N-(α-naphthyl)]benzamido}butyric acid] returned an LD50 at 336 h in data set [1] (mouse i.p., Table XI) of 360 mg/kg. Also, the selectivity ratio in data set [2] (Table XII, read-out: TQ LD50/ED50, bile secretion) is 45; in data set [5] (TQ LD50/ED25, antihepatotoxic effect, LD50 mouse i.p. / ED25 rat p.o., Table XI), 21.2; in data set [5] (TQ LD50/ED50, antihepatotoxic effect, LD50 mouse i.p. / ED50 rat p.o., Table XI) it was not above 12. Besides, the ED50 was 8 mg/kg in the data set with bile secretion (narcotized rat i.d., 30 minute fraction, Table XII, read-out: ED50 bile secretion (dose which brings about an increase in bile secretion by a maximum of 50%)) and not below 30 mg/kg in the data set on liver damage by CCl4. Moreover, the ED25 with liver damage by CCl4 amounted to 17 mg/kg.
